Tests used:
thrombin generation [1] = test: Thrombodynamics-4D thrombography in pooled normal plasma (Cryocheck) spiked with DOACs; assay type: biochemical, human
Method: (§1) Frozen pooled normal plasma samples (Cryocheck-Cryopep) were spiked with increasing concentrations of DOACs (0-450 ng/mL), as previously described. […] were kindly provided by Bristol Myers Squibb/Pfizer, Bayer Healthcare, and Boehringer Ingelheim, respectively.
(§2) The TD-4D assay was performed centrally using the Thrombodynamics analyzer system (Hemacore, Diapharma) with the TD-4D PLS dedicated kit (Hemacore, Diapharma). The system simultaneously measures spatiotemporal parameters of fibrin clot formation (fibrinography) and TG process (thrombography) in a thin layer of unstirred plasma. Briefly, 120 μL of platelet-poor plasma is added to a microcuvette containing corn trypsin inhibitor to prevent contribution of contact phase activation, then 5 μL of phospholipid solution (manufacturer’s reagent) is added. After incubation for 15 minutes at 37 °C in the Thrombodynamics device, the mixture is transferred to a second microcuvette containing calcium ions, and then immediately transferred to the measurement cuvette. Finally, the activator insert, whose surface is coated with immobilized tissue factor (100 pmol/m^2), is then transferred to the cuvette. The process of fibrin clot formation is recorded in a time-lapse video-microscopy mode using a dark-field light scattering method. Simultaneously, the system monitors TG by fluorimetry, based on the ability of thrombin to cleave a fluorogenic substrate, 7-amino-4-methylcoumarin (AMC) bound to a short amino acid sequence (Arg-Gly-Gly). The rate of AMC formation is proportional to local thrombin concentration. The microcuvette is maintained at 37 °C and is illuminated with red (625 nm) or ultra-violet (365 nm) light emitting diodes. Clot growth is detected with red light scattering, while AMC fluorescence is detected with UV. Scattered red light and fluorescence passing through the macro lens are recorded by a charge-coupled device system. Images under red and blue light are acquired once per minute. […]
(§3) The following fibrinography parameters were recorded (see Supplementary Table 1): (i) lag time (Tlag, minutes); (ii) initial rate of clot growth (Vi, μm/min); (iii) rate of clot growth (V, μm/min); (iv) clot size (CS, μm) measured at 30 minutes; (v) clot density (D, arbitrary units); (vi) time to spontaneous clotting (Tsp, minutes). The following thrombography parameters (at the near-activator area) were recorded (see Supplementary Table 1): (i) Tlag (minutes); (ii) time to thrombin peak (minutes); (iii) maximal thrombin concentration (ie, thrombin peak height, Cmax_ATG, AU/L); (iv) endogenous thrombin potential (ETP_ATG, AU⋅min/L); (v) stationary amplitude of moving peak of thrombin (Ast, AU/L); (vi) rate of thrombin peak propagation (μm/min; see Supplementary Videos 1–3).

[2] = Plasma DOAC concentration in ADAGE patients (chromogenic anti-FXa assay for rivaroxaban and apixaban; anti-FIIa Hemoclot assay for dabigatran); assay type: in vivo, human; details: for DOAC concentration, median (IQR): ADAGE patients ≥80 y, reduced dose: rivaroxaban 15 mg once daily, apixaban 2.5 mg twice daily, dabigatran 110 mg twice daily; for DOAC concentration, range: ADAGE patients, reduced dose (regimens as E1)
Source text: (§4) ADAGE is an academic, prospective, observational multicenter study (NCT 02464488; for details, see Foulon-Pinto et al.). We recruited hospitalized patients from the university hospital’s geriatric department (Assistance Publique-Hôpitaux de Paris, Paris, France). […] The DOAC dose regimen was at the discretion of the physician. Exclusion criteria included any acute, unstable comorbid condition or an estimated life expectancy of a few weeks. Sampling (see below) and last DOAC intake times were recorded on a standardized request form. Sampling time points were at the discretion of the physicians over a period of 20 days following inclusion. Time points were classified according to the time elapsed from the last oral intake (T, hours) for patients receiving rivaroxaban. T1 to T4 corresponded to peak time (Tmax), and T20 to T24 corresponded to trough (Tmin). […] Physicians prospectively collected demographic, clinical, and laboratory data (including creatinine clearance [CrCl] calculated with the Cockcroft–Gault formula). The study was approved by the institutionnel Ethics Committee (Comité consultatif de protection des personnes pour la recherche biomédicale–Île-de-France-6–number 15.074bis). All participants gave written informed consent to participate in the study. Only patients for whom remaining plasma aliquots were available were included in the present study.
(§5) Tubes were sent to each centre’s laboratory within 2 hours after sampling and immediately double-centrifuged for 15 minutes at 2000 × g at 15 to 22 °C to obtain platelet-poor plasma. Plasma samples (500 μL aliquots) were stored at −80 °C prior to shipment on dry ice for central analysis (Haematology Laboratory, Hôpital Lariboisière). Plasma samples were thawed for 3 to 5 minutes in a 37 °C water bath just before testing.
Dedicated calibrations and controls were used. The lower limit of quantification was 20 ng/mL for the 3 assays.

fibrin clot formation [3] = test: Thrombodynamics-4D fibrinography in plasma samples from ADAGE patients on DOACs; assay type: in vivo, human; details: for CS (clot size at 30 minutes), median (IQR) / CS (clot size at 30 minutes), range / D (clot density), median (IQR) / D (clot density), range / Fibrinography Tlag (lag time), median (IQR) / Fibrinography Tlag (lag time), range / Initial rate of clot growth (Vi), median (IQR) / Initial rate of clot growth (Vi), range / Time to Tsp (spontaneous clotting), median (IQR) / Time to Tsp (spontaneous clotting), range: ADAGE patients, reduced dose (regimens as E1)
Source text: as §4, §5
as §2, with “minute. The whole analysis lasts 1 hour. The Thrombodynamics software (Hemacore, Diapharma) calculates parameters of spatiotemporal dynamics of fibrin clot formation and TG [40, 46].” for “minute.”

fibrin clot formation [4] = test: Thrombodynamics-4D fibrinography in pooled normal plasma (Cryocheck) spiked with DOACs; assay type: biochemical, human; details: 0 to 1000 nM, mainly at low DOAC concentrations
Method: as §1
The TD-4D assay was performed centrally using the Thrombodynamics analyzer system (Hemacore, Diapharma) with the TD-4D PLS dedicated kit (Hemacore, Diapharma). The system simultaneously measures spatiotemporal parameters of fibrin clot formation (fibrinography) and TG process (thrombography) in a thin layer of unstirred plasma. Briefly, 120 μL of platelet-poor plasma is added to a microcuvette containing corn trypsin inhibitor to prevent contribution of contact phase activation, then 5 μL of phospholipid solution (manufacturer’s reagent) is added. […] The process of fibrin clot formation is recorded in a time-lapse video-microscopy mode using a dark-field light scattering method. […] Clot growth is detected with red light scattering, while AMC fluorescence is detected with UV. Scattered red light and fluorescence passing through the macro lens are recorded by a charge-coupled device system. […]
as §3

thrombin generation [5] = test: Thrombodynamics-4D thrombography in plasma samples from ADAGE patients on DOACs; assay type: in vivo, human; details: for ETP (endogenous thrombin potential, ETP_ATG), median (IQR) / ETP (endogenous thrombin potential, ETP_ATG), range / Thrombin peak height (Cmax_ATG), median (IQR) / Thrombin peak height (Cmax_ATG), range / Thrombography Tlag (Lag_ATG), median (IQR) / Thrombography Tlag (Lag_ATG), range / Time to peak (Tmax_ATG), median (IQR) / Time to peak (Tmax_ATG), range: ADAGE patients, reduced dose (regimens as E1)
Source text: as §4, §5
as §2, with “minute. The whole analysis lasts 1 hour. The Thrombodynamics software (Hemacore, Diapharma) calculates parameters of spatiotemporal dynamics of fibrin clot formation and TG [40, 46].” for “minute.”

[6] = all ADAGE patient samples, any time point and dose
[7] = all ADAGE patient samples, Spearman
[8] = univariate analysis, Tmax, line marked Halving
[9] = univariate analysis, Tmin, line marked Halving

In the case of `O=C(NC[C@H]1CN(c2ccc(N3CCOCC3=O)cc2)C(=O)O1)c1ccc(Cl)s1` [Rivaroxaban], the “Change of Ast (stationary amplitude of thrombin moving peak) with increasing concentrations” value (thrombin generation [1]) is reported as “not”, the “DOAC concentration, median (IQR)” value ([2]; Tmax (peak)) is reported as 248 (181-397) ng/mL and the “DOAC concentration, range” value ([2]; Tmax (peak)) is reported as 64 to 676 ng/mL. The “DOAC concentration, median (IQR)” value ([2]; Tmin (trough)) was 42 (27-69) ng/mL, the “DOAC concentration, range” value ([2]; Tmin (trough)) was 20 to 149 ng/mL and the “DOAC plasma concentration, lower end of range” value [2, 6] was less than 20 ng/mL. For the same molecule, the “DOAC plasma concentration, upper end of range” value [2, 6] was 676 ng/mL, the “CS (clot size at 30 minutes), median (IQR)” value (fibrin clot formation [3]; Tmax (peak)) was 1236 (1112-1393) μm and the “CS (clot size at 30 minutes), range” value (fibrin clot formation [3]; Tmax (peak)) was 1019-1759 μm. The “D (clot density), median (IQR)” value (fibrin clot formation [3]; Tmax (peak)) was 23,230 (20,060-28,420) a.u, the “D (clot density), range” value (fibrin clot formation [3]; Tmax (peak)) was 14,690-33,710 a.u and the “Fibrinography Tlag (lag time), median (IQR)” value (fibrin clot formation [3]; Tmax (peak)) was 2.0 (1.7-2.6) min. For the same molecule, the “Fibrinography Tlag (lag time), range” value (fibrin clot formation [3]; Tmax (peak)) was 1.3 to 4.7 min, the “Initial rate of clot growth (Vi), median (IQR)” value (fibrin clot formation [3]; Tmax (peak)) was 60.6 (56.2-65.3) μm/min and the “Initial rate of clot growth (Vi), range” value (fibrin clot formation [3]; Tmax (peak)) was 45.0-84.6 μm/min. The “Time to Tsp (spontaneous clotting), median (IQR)” value (fibrin clot formation [3]; Tmax (peak)) was 18.5 (11.4-31.6) min, the “Time to Tsp (spontaneous clotting), range” value (fibrin clot formation [3]; Tmax (peak)) was 7.7 to 58.1 min and the “CS (clot size at 30 minutes), median (IQR)” value (fibrin clot formation [3]; Tmin (trough)) was 1691 (1632-1734) μm. For the same molecule, the “CS (clot size at 30 minutes), range” value (fibrin clot formation [3]; Tmin (trough)) was 1276-2029 μm, the “D (clot density), median (IQR)” value (fibrin clot formation [3]; Tmin (trough)) was 23,940 (20,550-30,160) a.u and the “D (clot density), range” value (fibrin clot formation [3]; Tmin (trough)) was 18,160-37,370 a.u. The “Fibrinography Tlag (lag time), median (IQR)” value (fibrin clot formation [3]; Tmin (trough)) was 1.2 (1.0-1.4) min, the “Fibrinography Tlag (lag time), range” value (fibrin clot formation [3]; Tmin (trough)) was 0.8 to 2.1 min and the “Initial rate of clot growth (Vi), median (IQR)” value (fibrin clot formation [3]; Tmin (trough)) was 70.4 (64.9-75.8) μm/min. For the same molecule, the “Initial rate of clot growth (Vi), range” value (fibrin clot formation [3]; Tmin (trough)) was 56.5-87.1 μm/min, the “Time to Tsp (spontaneous clotting), median (IQR)” value (fibrin clot formation [3]; Tmin (trough)) was 10.9 (7.1-23.1) min and the “Time to Tsp (spontaneous clotting), range” value (fibrin clot formation [3]; Tmin (trough)) was 3.2 to 42.3 min. For the same molecule, the “Change of CS (clot size) with increasing concentrations” value (fibrin clot formation [3]; all ADAGE patient samples) was “decreased”, the “Association of D (clot density) with DOAC concentration” value (fibrin clot formation [3]; [7]) was “not” and the “Relationship between time to spontaneous clot formation (Tsp) and DOAC levels” value (fibrin clot formation [3]; [7]) was “no relationship”. The “Effect of DOAC concentration at Tmax (βC.pic) on fibrinography initial velocity of clot formation” value (fibrin clot formation [3]; [8]) was “≈ −0.001769%”, the “Effect of DOAC concentration at Tmin (βC.res) on fibrinography initial velocity of clot formation” value (fibrin clot formation [3]; [9]) was “≈ 0.08094%” and the “Samples in which spontaneous clotting occurred” value (fibrin clot formation [4]) was 14%. The “ETP (endogenous thrombin potential, ETP_ATG), median (IQR)” value (thrombin generation [5]; Tmax (peak)) was 1391 (1176-1774) AU⋅min/L, the “ETP (endogenous thrombin potential, ETP_ATG), range” value (thrombin generation [5]; Tmax (peak)) was 601-2371 AU⋅min/L and the “Thrombin peak height (Cmax_ATG), median (IQR)” value (thrombin generation [5]; Tmax (peak)) was 203 (140-268) AU/L. The “Thrombin peak height (Cmax_ATG), range” value (thrombin generation [5]; Tmax (peak)) was 64-371 AU/L, the “Thrombography Tlag (Lag_ATG), median (IQR)” value (thrombin generation [5]; Tmax (peak)) was 1.1 (0.8-1.5) min and the “Thrombography Tlag (Lag_ATG), range” value (thrombin generation [5]; Tmax (peak)) was 0.6 to 3.9 min. For the same molecule, the “Time to peak (Tmax_ATG), median (IQR)” value (thrombin generation [5]; Tmax (peak)) was 3.1 (2.6-3.8) min, the “Time to peak (Tmax_ATG), range” value (thrombin generation [5]; Tmax (peak)) was 2.6 to 7.1 min and the “ETP (endogenous thrombin potential, ETP_ATG), median (IQR)” value (thrombin generation [5]; Tmin (trough)) was 1832 (1322-2480) AU⋅min/L. For the same molecule, the “ETP (endogenous thrombin potential, ETP_ATG), range” value (thrombin generation [5]; Tmin (trough)) was 557-3572 AU⋅min/L, the “Thrombin peak height (Cmax_ATG), median (IQR)” value (thrombin generation [5]; Tmin (trough)) was 289 (254-422) AU/L and the “Thrombin peak height (Cmax_ATG), range” value (thrombin generation [5]; Tmin (trough)) was 132- 544 AU/L. For the same molecule, the “Thrombography Tlag (Lag_ATG), median (IQR)” value (thrombin generation [5]; Tmin (trough)) was 0.2 (0.1-0.4) min, the “Thrombography Tlag (Lag_ATG), range” value (thrombin generation [5]; Tmin (trough)) was 0.1 to 0.9 min and the “Time to peak (Tmax_ATG), median (IQR)” value (thrombin generation [5]; Tmin (trough)) was 2.1 (1.6-2.1) min. The “Time to peak (Tmax_ATG), range” value (thrombin generation [5]; Tmin (trough)) was 1.6 to 3.1 min, the “Change of ETP_ATG with increasing DOAC plasma concentrations” value (thrombin generation [5]; all ADAGE patient samples) was “decreased” and the “Effect of DOAC concentration at Tmax (βC.pic) on thrombography peak height (PH)” value (thrombin generation [5]; [8]) was “≈ 0.1032%”. The “Effect of DOAC concentration at Tmin (βC.res) on thrombography peak height (PH)” value (thrombin generation [5]; [9]) was “≈ 0.238%”.
